Entries after “also recorded” stand apart in the source; their conditions may differ.
Tests used:
[1] = test system: human SW480 colorectal cancer cells; experiment: Proliferation / cell number of SW480 cells (crystal violet); format: cell-based; settings: 10 μM, by 96 hours
Procedure: Cells were maintained in RPMI media supplemented with 10% foetal calf serum, penicillin (100 U/ml), streptomycin (100 μg/ml) and amphotericin B (4 μg/ml). A total of 5,000 cells were seeded per well in 96 well plates and left to incubate for 24 hours. The cells were washed in PBS and the media was replaced with solutions containing 10 μM of 5-fluorouracil (5FU), 4H, 11A or 11C. […] At each designated time point, the media was disposed and the cells washed with PBS. The cells were fixed with 1% glutaraldehyde for 20 minutes and then stained with crystal violet for 30 minutes. The plates were blotted and dried overnight. The cells were resuspended with 1% TritonX-100 and shaken for 15 minutes. The absorbance was read on a spectrophotometer at 550 nm.

[2] = test system: explants cultures of human colorectal cancers; experiment: Angiogenic/inflammatory factor secretion from human colorectal tumour explants (ELISA, multiplex); format: cell-based; settings: 10 μM, 72 hours; n=40 patients
Procedure: Human colorectal tumour samples were taken directly from the pathology laboratory after surgery once adequate material was taken for diagnostic testing. The tumour samples were washed and stored in DMSO/tumour conditioning media (TCM). The samples were snap-frozen in liquid nitrogen and stored at −80° C. until compound testing was performed. Prior to compound testing, the tumours were thawed and incubated in fresh TCM for 24 hours. The explants were then treated with 4H, 11A and 11C at […] concentrations for 72 hours. The TCM solutions were collected and stored at −20° C. and the remaining tumour explants were snap-frozen in liquid nitrogen and stored at −80° C. Proteins were extracted from the explants using a nuclear RIPA buffer containing PMSF, sodium orthovandate and protease inhibitors. The explants were homogenised in a PreCellys™ machine. The total protein contents were determined from the resulting lysates using the BCA assay™. […] The secretion of angiogenic cytokines was quantified using sandwich ELISA (DuoSet, R&D) for VEGF, ENA-78, MCP-1 and GROα and a multiplex assay (MSD) was used for the inflammatory cytokines: IL-13, TNF, IL-6 and IL-8. The secretion data were normalised according to the tumour sample's protein content.

[3] = test system: zebrafish intersegmental vessels; experiment: Quantification of intersegmental vessel number in zebrafish; format: in vivo; settings: for inhibition of developmental angiogenesis of intersegmental vessels (number of intersegmental vessels): 10 μM, from 6 hpf; for dose-dependent inhibition of development of intersegmental vessels: decreasing doses 10, 7.5, 5 and/or 1 μM; for inhibition of the number of intersegmental vessels that develop: 5 μM
Procedure: […] Larvae were manually dechorionated, euthanised, and fixed in 4% PFA at 4° C. overnight before analysis. The larvae were then washed with PBS and transferred to depression slides for observation under epi-fluorescence in an Olympus SZX16 fluorescent microscope. The number of intersegmental vessels was counted and the average number was graphed for each drug.
Larvae were manually dechorionated, euthanised, and fixed in 4% PFA at 4° C. overnight before analysis. The larvae were then washed with PBS and transferred to depression slides for observation under epi-fluorescence in an Olympus SZX16 fluorescent microscope. The number of intersegmental vessels was counted and the average number was graphed for each drug.

[4] = test system: zebrafish hyaloid vasculature; experiment: Quantification of primary hyaloid vasculature branch number in Tg(fli1:EGFP) zebrafish; format: in vivo; settings: for inhibition of developmental angiogenesis of the hyaloid vasculature (number of primary hyaloid vessels): typically 10 μM or 5 μM, from 24 hpf, vs DMSO control
Procedure: (§1) All experiments were carried out under ethical approval granted by the UCD animal research ethics committee. Tg(fli1:EGFP) zebrafish were maintained according to standard procedures on a 14 hr light/10 hr dark cycle at 28° C. Embryos were obtained by natural spawning and developmental stages established by time and morphological criteria. […] Larvae were euthanised, and fixed in 4% PFA at 4° C. overnight before analysis.
Overall patterning of the vasculature (fin, gut and intersegmental vessels) was examined for abnormalities. Right lenses were dissected from the larvae and transferred to depression slides for observation under epi-fluorescence in the Olympus SZX16. Patterning of the hyaloid vessels on the treated larval lenses was compared to DMSO controls and the archetypal pattern previously described (Alvarez et al., 2007; Alvarez et al., 2009).
as §1, with “analysis. Lenses were dissected from the larvae and transferred to depression slides for observation under epi-fluorescence in the Olympus SZX16. Patterning of the hyaloid vessels on the treated larval lenses was compared to DMSO controls and the archetypal pattern previously described (Alvarez et al., 2007; Alvarez et al., 2009).” for “analysis.”

Row | Molecule | cell number, % of the control [1] | cell number compared to control [1] | levels of ENA-78 secreted [2] | levels of GRO-α secreted [2] | levels of IL-6 secreted [2] | levels of IL-8 secreted [2] | levels of MCP-1 secreted [2] | levels of VEGF secreted [2] | inhibition of developmental angiogenesis of intersegmental vessels (number of intersegmental vessels) [3] | dose-dependent inhibition of development of intersegmental vessels [3] | inhibition of developmental angiogenesis of the hyaloid vasculature (number of primary hyaloid vessels) [4] | inhibition of the number of primary hyaloid vessels that develop ([4]; 10 μM, n>20) | levels of TNFα secreted [2] | inhibition of the number of intersegmental vessels that develop [3] | levels of IL-1β secreted (printed IL-13, IL-1) [2]
1 | O=c1[nH]cc(F)c(=O)[nH]1 [5-fluorouracil, reference compound] | 60% | – | – | – | – | – | – | – | – | – | – | – | – | – | –
2 | Cc1ccc(N2C(=O)CC(NNC(=O)c3ccccc3)C2=O)c(C)c1 (stereo not drawn) [Compound 4H, N′-[1-(2,4-dimethylphenyl)-2,5-dioxo-3-pyrrolidinyl]benzohydrazide] | – | did not significantly reduce cell number | significantly reduced | significantly reduced | significantly reduced | significantly reduced | significantly reduced; also recorded: significant effects | significantly reduced; also recorded: significant effects | significant inhibition; also recorded: inhibit developmental angiogenesis of zebrafish intersegmental vessels in a statistically significant manner | dose-dependent effect | – | – | – | – | –
3 | Oc1ccccc1/C=C\c1ccc2ccccc2n1 [Compound 11B_Z, (Z)-2-(2-(Quinolin-2-yl)vinyl) phenol] | – | – | – | – | – | – | – | – | inhibit developmental angiogenesis of zebrafish intersegmental vessels in a statistically significant manner | – | inhibit developmental angiogenesis of the zebrafish hyaloid vasculature in a statistically significant manner | – | – | – | –
4 | O=C(C=Cc1ccc2c(c1)OCO2)NCc1cccnc1 [Compound 11C] | – | did not significantly reduce cell number | significantly reduced | significantly reduced | significantly reduced | significantly reduced | significantly reduced; also recorded: significant effects | significant effects | significant inhibition; also recorded: inhibit developmental angiogenesis of zebrafish intersegmental vessels in a statistically significant manner | dose-dependent effect | inhibit developmental angiogenesis of the zebrafish hyaloid vasculature in a statistically significant manner | significant inhibition | significantly reduced | significant inhibition | –
5 | (5-bromo-N′-[2-(trifluromethyl)benzylidene]-2-furohydrazide) [Compound 11A] | – | did not significantly reduce cell number | significantly reduced | significantly reduced | – | significantly reduced | significantly reduced; also recorded: significant effects | significantly reduced; also recorded: significant effects | significant inhibition; also recorded: inhibit developmental angiogenesis of zebrafish intersegmental vessels in a statistically significant manner | dose-dependent effect | – | – | significantly reduced | significant inhibition | significantly reduced
